Counter-ions that a name gives are not always drawn.
Assays:
Test in all cases: cells
NCI-H1092 = type: functional, cell-based, Homo sapiens; details: Homo sapiens, NCI-H1092;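 further: cell growth inhibition measured with a cell viability assay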
Description: SANGER: Inhibition of human NCI-H1092 cell growth in a cell viability assay.

MV4-11 = type: functional, cell-based, Homo sapiens, MV-4-11; details: Homo sapiens, MV4-11;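 further: cell viability readout measuring growth inhibition of human MV-4-11 cells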
Description: SANGER: Inhibition of human MV-4-11 cell growth in a cell viability assay.

SF-268 = type: functional, cell-based, Homo sapiens; details: Homo sapiens, SF-268;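 further: growth inhibition of SF-268 cells determined with a cell viability assay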
Description: SANGER: Inhibition of human SF268 cell growth in a cell viability assay.

NOMO-1 = type: functional, cell-based, Homo sapiens; details: Homo sapiens, NOMO-1;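 further: growth inhibition of human NOMO-1 cells measured by a cell viability assay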
Description: SANGER: Inhibition of human NOMO-1 cell growth in a cell viability assay.

Lu-65 = type: functional, cell-based, Homo sapiens; details: Homo sapiens, Lu-65;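 further: growth inhibition of Lu-65 cancer cells, read out by a cell viability assay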
Description: SANGER: Inhibition of human LU-65 cell growth in a cell viability assay.

NB5 = type: functional, cell-based, Homo sapiens; details: Homo sapiens, NB5;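 further: growth inhibition of NB5 cells, read out as cell viability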
Description: SANGER: Inhibition of human NB5 cell growth in a cell viability assay.

EKVX = type: functional, cell-based, Homo sapiens; details: Homo sapiens, EKVX;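 further: growth inhibition of human EKVX cells, read out with a cell viability assay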
Description: SANGER: Inhibition of human EKVX cell growth in a cell viability assay.

TGBC24TKB = type: functional, cell-based, Homo sapiens; details: Homo sapiens, TGBC24TKB;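 further: growth inhibition of human TGBC24TKB cells, read out with a cell viability assay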
Description: SANGER: Inhibition of human TGBC24TKB cell growth in a cell viability assay.

HuTu80 = type: functional, cell-based, Homo sapiens, HUTU-80; details: Homo sapiens, HuTu80;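 further: growth inhibition of HuTu80 human cells, determined with a cell viability readout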
Description: SANGER: Inhibition of human HUTU-80 cell growth in a cell viability assay.

CTV-1 = type: functional, cell-based, Homo sapiens; details: Homo sapiens, CTV-1;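 further: growth inhibition of the cell line, read out with a cell viability assay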
Description: SANGER: Inhibition of human CTV-1 cell growth in a cell viability assay.

TGW = type: functional, cell-based, Homo sapiens; details: Homo sapiens, TGW;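 further: growth inhibition of human TGW cells, read out with a cell viability assay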
Description: SANGER: Inhibition of human TGW cell growth in a cell viability assay.

NKM-1 = type: functional, cell-based, Homo sapiens; details: Homo sapiens, NKM-1;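 further: growth inhibition of NKM-1 cells, read out with a cell viability assay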
Description: SANGER: Inhibition of human NKM-1 cell growth in a cell viability assay.

HT-144 = type: functional, cell-based, Homo sapiens; details: Homo sapiens, HT-144
Description: SANGER: Inhibition of human HT-144 cell growth in a cell viability assay.

EW-18 = type: functional, cell-based, Homo sapiens; details: Homo sapiens, EW-18;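 further: growth inhibition of EW-18 cells, read out by a cell viability assay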
Description: SANGER: Inhibition of human EW-18 cell growth in a cell viability assay.

GCIY = type: functional, cell-based, Homo sapiens; details: Homo sapiens, GCIY;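 further: growth inhibition of the human GCIY cell line, read out by a cell viability assay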
Description: SANGER: Inhibition of human GCIY cell growth in a cell viability assay.

LB2241-RCC = type: functional, cell-based, Homo sapiens; details: Homo sapiens, LB2241-RCC;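 further: cell viability assay measuring how strongly the cultured human renal carcinoma line is prevented from growing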
Description: SANGER: Inhibition of human LB2241-RCC cell growth in a cell viability assay.

EOL1 = type: functional, cell-based, Homo sapiens; details: Homo sapiens, EOL1;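 further: growth inhibition of EoL-1 cells, read out by a cell viability assay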
Description: SANGER: Inhibition of human EoL-1-cell cell growth in a cell viability assay.

RXF 393 = type: functional, cell-based, Homo sapiens; details: Homo sapiens, RXF 393;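 further: growth inhibition of human RXF 393 cells, read out with a cell viability assay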
Description: SANGER: Inhibition of human RXF393 cell growth in a cell viability assay.

RKO = type: functional, cell-based, Homo sapiens; details: Homo sapiens, RKO;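 further: growth inhibition of human RKO cells, read out with a cell viability assay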
Description: SANGER: Inhibition of human RKO cell growth in a cell viability assay.

KM12 = type: functional, cell-based, Homo sapiens; details: Homo sapiens, KM12;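 further: KM12 cell growth inhibition, read out with a cell viability assay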
Description: SANGER: Inhibition of human KM12 cell growth in a cell viability assay.

CP66-MEL = type: functional, cell-based, Homo sapiens; details: Homo sapiens, CP66-MEL;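 further: growth inhibition of CP66-MEL cells determined in a cell viability assay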
Description: SANGER: Inhibition of human CP66-MEL cell growth in a cell viability assay.

NB6 = type: functional, cell-based, Homo sapiens; details: Homo sapiens, NB6;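 further: growth inhibition of NB6 cells, read out by a cell viability assay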
Description: SANGER: Inhibition of human NB6 cell growth in a cell viability assay.

CW-2 = type: functional, cell-based, Homo sapiens; details: Homo sapiens, CW-2;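 further: growth inhibition of CW-2 cells, read out by a cell viability assay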
Description: SANGER: Inhibition of human CW-2 cell growth in a cell viability assay.

SW982 = type: functional, cell-based, Homo sapiens; details: Homo sapiens, SW982;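 further: growth inhibition of SW982 cells, read out with a cell viability assay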
Description: SANGER: Inhibition of human SW982 cell growth in a cell viability assay.

ES6 = type: functional, cell-based, Homo sapiens; details: Homo sapiens, ES6;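 further: growth inhibition of human ES6 cells, read out with a cell viability assay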
Description: SANGER: Inhibition of human ES6 cell growth in a cell viability assay.

DB = type: functional, cell-based, Homo sapiens; details: Homo sapiens, DB
Description: SANGER: Inhibition of human DB cell growth in a cell viability assay.

MN-60 = type: functional, cell-based, Homo sapiens; details: Homo sapiens, MN-60;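 further: growth inhibition of the MN-60 cell line, determined with a cell viability assay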
Description: SANGER: Inhibition of human MN-60 cell growth in a cell viability assay.

NEC8 = type: functional, cell-based, Homo sapiens; details: Homo sapiens, NEC8;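 further: growth inhibition of human NEC8 cells, read out by a cell viability assay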
Description: SANGER: Inhibition of human NEC8 cell growth in a cell viability assay.

KY821 = type: functional, cell-based, Homo sapiens; details: Homo sapiens, KY821;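 further: growth inhibition of human KY821 cells, read out by a cell viability assay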
Description: SANGER: Inhibition of human KY821 cell growth in a cell viability assay.

MOLT-4 = type: functional, cell-based, Homo sapiens; details: Homo sapiens, MOLT-4;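 further: growth inhibition of MOLT-4 cells, determined with a cell viability readout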
Description: SANGER: Inhibition of human MOLT-4 cell growth in a cell viability assay.

KNS-42 = type: functional, cell-based, Homo sapiens; details: Homo sapiens, KNS-42;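 further: growth inhibition of KNS-42 cells, read out with a cell viability assay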
Description: SANGER: Inhibition of human KNS-42 cell growth in a cell viability assay.

MZ1-PC = type: functional, cell-based, Homo sapiens; details: Homo sapiens, MZ1-PC;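 further: cell viability assay measuring growth inhibition of human MZ1-PC cells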
Description: SANGER: Inhibition of human MZ1-PC cell growth in a cell viability assay.

SW684 = type: functional, cell-based, Homo sapiens; details: Homo sapiens, SW684;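 further: growth inhibition of human SW684 cells, measured by a cell viability assay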
Description: SANGER: Inhibition of human SW684 cell growth in a cell viability assay.

no-10 = type: functional, cell-based, Homo sapiens; details: Homo sapiens;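 further: growth inhibition of no-10 cells, read out with a cell viability assay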
Description: SANGER: Inhibition of human no-10 cell growth in a cell viability assay.

BT-474 = type: functional, cell-based, Homo sapiens; details: Homo sapiens, BT-474
Description: SANGER: Inhibition of human BT-474 cell growth in a cell viability assay.

MS-1 = type: functional, cell-based, Homo sapiens; details: Homo sapiens, MS-1;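 further: growth inhibition of MS-1 cells, read out by cell viability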
Description: SANGER: Inhibition of human MS-1 cell growth in a cell viability assay.

8-MG-BA = type: functional, cell-based, Homo sapiens; details: Homo sapiens, 8-MG-BA;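 further: growth inhibition of 8-MG-BA cells, read out with a cell viability assay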
Description: SANGER: Inhibition of human 8-MG-BA cell growth in a cell viability assay.

MEG-01 = type: functional, cell-based, Homo sapiens; details: Homo sapiens, MEG-01;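 further: growth inhibition of MEG-01 cells, read out by a cell viability assay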
Description: SANGER: Inhibition of human MEG-01 cell growth in a cell viability assay.

DOHH-2 = type: functional, cell-based, Homo sapiens; details: Homo sapiens, DOHH-2;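 further: growth inhibition of human DOHH-2 cells, read out with a cell viability assay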
Description: SANGER: Inhibition of human DOHH-2 cell growth in a cell viability assay.

BB65-RCC = type: functional, cell-based, Homo sapiens; details: Homo sapiens, BB65-RCC;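 further: growth inhibition of the cell line, measured with a cell viability assay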
Description: SANGER: Inhibition of human BB65-RCC cell growth in a cell viability assay.

OMC-1 = type: functional, cell-based, Homo sapiens; details: Homo sapiens, OMC-1;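 further: growth inhibition of the OMC-1 cell line, measured by a cell viability assay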
Description: SANGER: Inhibition of human OMC-1 cell growth in a cell viability assay.

SK-N-FI = type: functional, cell-based, Homo sapiens; details: Homo sapiens, SK-N-FI;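 further: cell viability assay measuring growth inhibition of human SK-N-FI cells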
Description: SANGER: Inhibition of human SK-N-FI cell growth in a cell viability assay.

TE-12 = type: functional, cell-based, Homo sapiens; details: Homo sapiens, TE-12;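 further: growth inhibition of TE-12 cells, read out by a cell viability assay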
Description: SANGER: Inhibition of human TE-12 cell growth in a cell viability assay.

NCI-H1155 = type: functional, cell-based, Homo sapiens; details: Homo sapiens, NCI-H1155;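 further: cell growth inhibition measured by a viability assay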
Description: SANGER: Inhibition of human NCI-H1155 cell growth in a cell viability assay.

ETK-1 = type: functional, cell-based, Homo sapiens; details: Homo sapiens, ETK-1;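 further: growth inhibition of human ETK-1 cells, read out with a cell viability assay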
Description: SANGER: Inhibition of human ETK-1 cell growth in a cell viability assay.

KGN = type: functional, cell-based, Homo sapiens; details: Homo sapiens, KGN;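 further: growth inhibition of KGN cells, read out with a cell viability assay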
Description: SANGER: Inhibition of human KGN cell growth in a cell viability assay.

MHH-PREB-1 = type: functional, cell-based, Homo sapiens; details: Homo sapiens, MHH-PREB-1;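 further: cell viability assay measuring inhibition of proliferation of human MHH-PREB-1 cells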
Description: SANGER: Inhibition of human MHH-PREB-1 cell growth in a cell viability assay.

IST-MEL1 = type: functional, cell-based, Homo sapiens; details: Homo sapiens, IST-MEL1;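 further: growth inhibition of the cell line, read out with a cell viability assay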
Description: SANGER: Inhibition of human IST-MEL1 cell growth in a cell viability assay.

JVM-3 = type: functional, cell-based, Homo sapiens; details: Homo sapiens, JVM-3;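 further: growth inhibition of human JVM-3 cells, read out with a cell viability assay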
Description: SANGER: Inhibition of human JVM-3 cell growth in a cell viability assay.

COLO-668 = type: functional, cell-based, Homo sapiens; details: Homo sapiens, COLO-668
Description: SANGER: Inhibition of human COLO-668 cell growth in a cell viability assay.

O=C(O)c1ccc(-c2c[nH]c3ncc(-c4ccccc4)cc23)cc1C1CCCC1 [GSK-650394]
IC50 (NCI-H1092): > 16000 nM
IC50 (MV4-11): 165 nM
IC50 (SF-268): > 16000 nM
IC50 (NOMO-1): > 16000 nM
IC50 (Lu-65): > 16000 nM
IC50 (NB5): > 16000 nM
IC50 (EKVX): > 16000 nM
IC50 (TGBC24TKB): > 16000 nM
IC50 (HuTu80): 1300 nM
IC50 (CTV-1): > 16000 nM
IC50 (TGW): > 16000 nM
IC50 (NKM-1): 2770 nM
IC50 (HT-144): > 16000 nM
IC50 (EW-18): > 16000 nM
IC50 (GCIY): > 16000 nM
IC50 (LB2241-RCC): > 16000 nM
IC50 (EOL1): 11300 nM
IC50 (RXF 393): > 16000 nM
IC50 (RKO): 1580 nM
IC50 (KM12): 851 nM
IC50 (CP66-MEL): > 16000 nM
IC50 (NB6): > 16000 nM
IC50 (CW-2): > 16000 nM
IC50 (SW982): 13800 nM
IC50 (ES6): 8670 nM
IC50 (DB): > 16000 nM
IC50 (MN-60): > 16000 nM
IC50 (NEC8): > 16000 nM
IC50 (KY821): > 16000 nM
IC50 (MOLT-4): > 16000 nM
IC50 (KNS-42): > 16000 nM
IC50 (MZ1-PC): > 16000 nM
IC50 (SW684): > 16000 nM
IC50 (no-10): > 16000 nM
IC50 (BT-474): > 16000 nM
IC50 (MS-1): > 16000 nM
IC50 (8-MG-BA): 15600 nM
IC50 (MEG-01): 5260 nM
IC50 (DOHH-2): > 16000 nM
IC50 (BB65-RCC): > 16000 nM
IC50 (OMC-1): > 16000 nM
IC50 (SK-N-FI): > 16000 nM
IC50 (TE-12): 1990 nM
IC50 (NCI-H1155): > 16000 nM
IC50 (ETK-1): 10100 nM
IC50 (KGN): > 16000 nM
IC50 (MHH-PREB-1): > 16000 nM
IC50 (IST-MEL1): > 16000 nM
IC50 (JVM-3): > 16000 nM
IC50 (COLO-668): > 16000 nM

COc1cc2ncn(-c3cc(OCc4ccccc4C(F)(F)F)c(C(N)=O)s3)c2cc1OC [GW843682X]
IC50 (NCI-H1092): > 256 nM
IC50 (MV4-11): 25.9 nM
IC50 (SF-268): 83 nM
IC50 (NOMO-1): > 256 nM
IC50 (Lu-65): > 256 nM
IC50 (NB5): 86.2 nM
IC50 (EKVX): > 256 nM
IC50 (TGBC24TKB): 45 nM
IC50 (HuTu80): 22.3 nM
IC50 (CTV-1): 30.4 nM
IC50 (TGW): 34.7 nM
IC50 (NKM-1): 138 nM
IC50 (HT-144): 16.4 nM
IC50 (EW-18): > 256 nM
IC50 (GCIY): 48 nM
IC50 (LB2241-RCC): > 256 nM
IC50 (EOL1): 42.3 nM
IC50 (RXF 393): 105 nM
IC50 (RKO): 17.2 nM
IC50 (KM12): 16.5 nM
IC50 (CP66-MEL): 162 nM
IC50 (NB6): 142 nM
IC50 (CW-2): > 256 nM
IC50 (SW982): 25.3 nM
IC50 (ES6): 6.19 nM
IC50 (DB): > 256 nM
IC50 (MN-60): > 256 nM
IC50 (NEC8): 48.7 nM
IC50 (KY821): 15.9 nM
IC50 (MOLT-4): 26.9 nM
IC50 (KNS-42): 24.7 nM
IC50 (MZ1-PC): 22.2 nM
IC50 (SW684): > 256 nM
IC50 (no-10): 20.7 nM
IC50 (BT-474): > 256 nM
IC50 (MS-1): 16 nM
IC50 (8-MG-BA): 19.4 nM
IC50 (MEG-01): 41.9 nM
IC50 (DOHH-2): 60.8 nM
IC50 (BB65-RCC): 68.9 nM
IC50 (OMC-1): > 256 nM
IC50 (SK-N-FI): 232 nM
IC50 (TE-12): 27.3 nM
IC50 (NCI-H1155): 86.8 nM
IC50 (ETK-1): 17.3 nM
IC50 (KGN): 33.2 nM
IC50 (MHH-PREB-1): 20.8 nM
IC50 (IST-MEL1): 28.8 nM
IC50 (JVM-3): > 256 nM
IC50 (COLO-668): > 256 nM

COC1=CC(c2cc3ccccc3[nH]2)=N/C1=C\c1[nH]c(C)cc1C [OBATOCLAX MESYLATE]
IC50 (NCI-H1092): 3080 nM
IC50 (MV4-11): 180 nM
IC50 (SF-268): 57.6 nM
IC50 (NOMO-1): 564 nM
IC50 (Lu-65): 1090 nM
IC50 (NB5): 1410 nM
IC50 (EKVX): 1660 nM
IC50 (TGBC24TKB): 3680 nM
IC50 (HuTu80): 104 nM
IC50 (CTV-1): 75.2 nM
IC50 (TGW): 17.4 nM
IC50 (NKM-1): < 62.5 nM
IC50 (HT-144): < 62.5 nM
IC50 (EW-18): 130 nM
IC50 (GCIY): 310 nM
IC50 (LB2241-RCC): 761 nM
IC50 (EOL1): 115 nM
IC50 (RXF 393): 1770 nM
IC50 (RKO): < 62.5 nM
IC50 (KM12): 318 nM
IC50 (CP66-MEL): 871 nM
IC50 (NB6): 4430 nM
IC50 (CW-2): > 16000 nM
IC50 (SW982): 445 nM
IC50 (ES6): 144 nM
IC50 (DB): 234 nM
IC50 (MN-60): 99 nM
IC50 (NEC8): 55.9 nM
IC50 (KY821): > 16000 nM
IC50 (MOLT-4): 477 nM
IC50 (KNS-42): 400 nM
IC50 (MZ1-PC): 108 nM
IC50 (SW684): > 16000 nM
IC50 (no-10): 1460 nM
IC50 (BT-474): 175 nM
IC50 (MS-1): 1290 nM
IC50 (8-MG-BA): 78 nM
IC50 (MEG-01): 454 nM
IC50 (DOHH-2): < 62.5 nM
IC50 (BB65-RCC): 175 nM
IC50 (OMC-1): 721 nM
IC50 (SK-N-FI): 14900 nM
IC50 (TE-12): 333 nM
IC50 (NCI-H1155): 6960 nM
IC50 (ETK-1): 56.7 nM
IC50 (KGN): 261 nM
IC50 (MHH-PREB-1): < 62.5 nM
IC50 (IST-MEL1): < 62.5 nM
IC50 (JVM-3): > 16000 nM
IC50 (COLO-668): 1330 nM

CC(=O)O[C@H]1C(=O)[C@@]2(C)[C@H]([C@H](OC(=O)c3ccccc3)[C@]3(O)C[C@H](OC(=O)[C@H](O)[C@@H](NC(=O)c4ccccc4)c4ccccc4)C(C)=C1C3(C)C)[C@]1(OC(C)=O)CO[C@@H]1C[C@@H]2O [PACLITAXEL]
IC50 (NCI-H1092): > 102 nM
IC50 (MV4-11): 4.75 nM
IC50 (SF-268): 11.5 nM
IC50 (NOMO-1): 92.8 nM
IC50 (Lu-65): > 102 nM
IC50 (NB5): > 102 nM
IC50 (EKVX): > 102 nM
IC50 (TGBC24TKB): 7.52 nM
IC50 (HuTu80): 1.68 nM
IC50 (CTV-1): 14.8 nM
IC50 (TGW): 86.1 nM
IC50 (NKM-1): > 102 nM
IC50 (HT-144): 8 nM
IC50 (EW-18): > 102 nM
IC50 (GCIY): > 102 nM
IC50 (LB2241-RCC): > 102 nM
IC50 (EOL1): 26.9 nM
IC50 (RXF 393): 12.6 nM
IC50 (RKO): 2.98 nM
IC50 (KM12): 6.37 nM
IC50 (CP66-MEL): > 102 nM
IC50 (NB6): > 102 nM
IC50 (CW-2): > 102 nM
IC50 (SW982): 7.66 nM
IC50 (ES6): 95.9 nM
IC50 (DB): > 102 nM
IC50 (MN-60): > 102 nM
IC50 (NEC8): 52.9 nM
IC50 (KY821): 27 nM
IC50 (MOLT-4): 1.49 nM
IC50 (KNS-42): 8.91 nM
IC50 (MZ1-PC): 0.729 nM
IC50 (SW684): > 102 nM
IC50 (no-10): 3.62 nM
IC50 (BT-474): > 102 nM
IC50 (MS-1): > 102 nM
IC50 (8-MG-BA): 7.96 nM
IC50 (MEG-01): 29.8 nM
IC50 (DOHH-2): 12 nM
IC50 (BB65-RCC): 25.3 nM
IC50 (OMC-1): > 102 nM
IC50 (SK-N-FI): > 102 nM
IC50 (TE-12): 33.1 nM
IC50 (NCI-H1155): > 102 nM
IC50 (ETK-1): 1.52 nM
IC50 (KGN): 7.12 nM
IC50 (MHH-PREB-1): 21.9 nM
IC50 (IST-MEL1): 26.2 nM
IC50 (JVM-3): > 102 nM
IC50 (COLO-668): > 102 nM
